Reference: patent US4853385A, “7-N,8-N-Ethylenemitomycin 8-imines” (Kyowa Hakko Kogyo Co., Ltd., priority 1987, dated 1989)

Columns and labels:
[1] = tested on: mitomycin C-resistant P-388; experiment: Antitumor activity against mitomycin C-resistant P-388; assay type: in vivo, CDF1 mice (P-388 from DBA/2 mice); settings: single i.p.
Procedure: (§1) Some compounds were chosen from Compound I and antitumor activity against lymphocytic leukemia P-388 and mitomycin C-resistant P-388 was measured.
(§2) From the peritoneal cavity of P-388 ascitic tumor-bearing mice (DBA/2) 7 days after the implantation, an ascitic fluid was collected. The cell number of P-388 in the ascitic fluid was counted, and the cells were suspended in sterile physiological saline to prepare a tumor cell suspension containing 5×10^6 cells/ml. 0.2 ml (containing 1×10^6 cells) of the suspension was implanted intraperitoneally into CDF1 mice weighing 20 to 25 g. The test compound was intraperitoneally administered to each mouse of one test group consisting of 6 CDF1 mice at a single dosage in 24 hours after the implantation of the tumor. 33-Day observation gave the survived life span for each mouse. Evaluation of the effect of the test compound was made by a ratio of a mean survival days after the implantation of the mice treated with the test compound to a mean survival days of the mice untreated with the test compound in the control group (Increased Life Span, ILS%). Then, ILS*, which is a ratio of ILS % of the test compound to ILS % of mitomycin C used as a reference compound under the same conditions, was calculated and shown in Table 4.
Further, the experiment was carried out in the same manner as above, using lymphocytic leukemia P-388 resistant to mitomycin C. Evaluation of the effect of the test compound is shown by a ratio (ILS %) to a mean survival data of the control group (untreated mice).

[2] = Acute toxicity (LD50, Beherns Kaerber's method); settings: mouse, in vivo, ip; single i.p. administration, 14 days observation, ddY mice
Procedure: (§3) Some compounds were chosen from Compound I, and antitumor activity (ED50) against Sarcoma 180 solid tumor and acute toxicity (LD50) were measured.
Each animal of the test group consisting of 5 ddY mice was administered intraperitoneally once with a test compound. […] The LD50 was determined by Beherns Kaerber's method.

[3] = tested on: lymphocytic leukemia P-388; experiment: Antitumor activity against lymphocytic leukemia P-388; assay type: in vivo, CDF1 mice (P-388 from DBA/2 mice); settings: single i.p., 33-day observation
Procedure: as §1
The experiment was carried out by the following method.
as §2

[4] = tested on: Sarcoma 180 solid tumor; experiment: Antitumor activity against sarcoma 180 solid tumor (tumor volume T/C, ED50); assay type: in vivo; settings: ddY mice; for CI (chemotherapy index, LD50/ED50): sarcoma 180 solid tumor, i.p.; for ED50: Mus musculus, Sarcoma-180, ip, 168 h, i.p. 24 h after s.c. implantation, tumor volume at 7 days, dose for T/C 0.5
Procedure: as §3
(1) Effect on sarcoma 180 solid tumor
Sarcoma 180 cells of 5×10^6 were intraperitoneally implanted into ddY mice. Seven days after, the cells were collected from the ascites. The cells were washed once with a sterile physiological saline, and the cells were suspended in sterile physiological saline to prepare a cell suspension containing 5×10^7 cells per ml. 0.1 ml of the suspension was subcutaneously implanted into the right axilla of male ddY mice weighing 20±2 g. The test compound was dissolved in physiological saline with or without addition of Tween 80 and was administered intraperitoneally into each mouse of a group consisting of 5 mice at a dose of 0.1-0.2 ml, 24 hours after the implantation of the tumor cells.
The anti-tumor activity was determined in the following manner. 7 days after the implantation, the major axis (a) and the minor axis (b) of the tumor were measured to calculate a value of "a×b^2 /2" which corresponds to the volume of the tumor. The anti-tumor activity was expressed by the ratio (T/C) of the volume (T) of the tumors of the group of animals administered with the test compound to the corresponding volume (C) of tumors of the untreated animals.
(2) Determination of ED50 :
On graph paper, T/C was indicated by an arithmetic scale on the longitudinal axis and the administered amount of the test compound was indicated by a logarithmic scale on the lateral axis. The relationship between the dose and T/C was plotted by a straight line determined by the method of least squares, from which a dose corresponding to T/C of 0.5 was obtained.
CI in the table indicates chemotherapy index and given by:
As is clear from this definition, the CI value reflects selective toxicity against tumor. As the CI value is larger, the effect as an antitumor agent is more excellent, and from a clinical viewpoint, allowance of chemicals in dosage becomes broader. Therefore, the CI value is one of the most important indices in evaluation of antitumor agents.

Question: What does the source list for CO[C@@]12[C@H](COC(N)=O)C3=C(C(=O)C(C)=C4NCCN=C43)N1C[C@H]1[C@@H]2N1C (stereo partly drawn) [Compound 1, 7-N,8-N-ethyleneporfiromycin 8-imine]?
Answer: ILS(%) (ratio to mean survival of the untreated control group) ([1]; mitomycin C-resistant P-388, dose 1.5 mg/kg): 135%; LD50 at 336 h [2]: 2.6 mg/kg; ILS* (ratio of ILS % of test compound to ILS % of mitomycin C) ([3]; P-388, dose 1.5 mg/kg): 0.60; CI (chemotherapy index, LD50/ED50) [4]: 1.73; ED50 [4]: 1.5 mg/kg

Question: With CO[C@@]12[C@H](COC(N)=O)C3=C(C(=O)C(C)=C4NCCN=C43)N1C[C@@H]1N[C@@H]12 [Compound A, 7-N,8-N-ethylenemitomycin C 8-imine, reference compound] as the compound, how does the “ILS(%) (ratio to mean survival of the untreated control group)” value ([1]; mitomycin C-resistant P-388, dose 100 mg/kg) read?
Answer: 107%

Question: And the LD50 at 336 h [2]?
Answer: 6.5 mg/kg

Question: What about the “ILS* (ratio of ILS % of test compound to ILS % of mitomycin C)” value ([3]; P-388, dose 100 mg/kg) of the same compound?
Answer: 0.43

Question: And the “CI (chemotherapy index, LD50/ED50)” value [4]?
Answer: 1.10

Question: And the ED50 [4]?
Answer: 5.9 mg/kg

Question: With C=C1C2=C(C(=O)C(C)=C3NCCN=C32)N2C[C@H]3[C@H](N3C)[C@]12O (stereo partly drawn) [Compound 4, 9a-O--Demethyl-7-N,8-N--ethylenemitomycin G 8-imine] as the compound, how does the LD50 at 336 h [2] read?
Answer: 100 mg/kg

Question: And the “CI (chemotherapy index, LD50/ED50)” value [4]?
Answer: 2.11

Question: And the ED50 [4]?
Answer: 47.5 mg/kg

Question: What does the source list for CO[C@@]12[C@H](COC(N)=O)C3=C(C(=O)C(C)=C4NC5CCCCC5N=C43)N1C[C@H]1[C@@H]2N1C (stereo partly drawn) [Compound 5, 7-N,8-N--(1,2-Cyclohexylene) porfiromycin 8-imine]?
Answer: ILS(%) (ratio to mean survival of the untreated control group) ([1]; mitomycin C-resistant P-388, dose 1.25 mg/kg): 144%; ILS* (ratio of ILS % of test compound to ILS % of mitomycin C) ([3]; P-388, dose 1.25 mg/kg): 0.56

Question: Which LD50 at 336 h [2] does the source give for CC1=C2NCCN=C2C2=C(C1=O)N1C[C@H]3[C@H](N3C)[C@]1(O)[C@H]2COC(N)=O (stereo partly drawn) [Compound 2, 7-N,8-N--Ethylenemitomycin D 8-imine] here?
Answer: 22.5 mg/kg

Question: What about the “CI (chemotherapy index, LD50/ED50)” value [4] of the same compound?
Answer: 2.12

Question: What about the ED50 [4] of the same compound?
Answer: 10.6 mg/kg

Question: Which results are given for CO[C@]12[C@@H]3[C@H](CN1C1=C(C4=NCCNC4=C(C)C1=O)[C@@H]2COC(N)=O)N3C (stereo partly drawn) [Compound 3, 7-N,8-N--Ethylenemitomycin E 8-imine]?
Answer: LD50 at 336 h [2]: 5.6 mg/kg; CI (chemotherapy index, LD50/ED50) [4]: 1.51; ED50 [4]: 3.7 mg/kg
